These compounds were tested against BACE1 (Homo sapiens (Human), UniProt P56817) (assay: Activity assay: inhibitory activity against the enzyme BACE1). Conditions: 10 doses, 3-fold serial dilution starting from 10 μmol/L, singlet.
Type: biochemical
Description: The activity assay for the compound of each example was carried out in this experimental example, and the detailed test method was as follows:
1. The test compound was formulated as […] solution in dimethylsulfoxide;
2. Starting from 10 μmol/L, by 3-fold serial dilution, the inhibitory activity of each compound against the enzyme was tested in singlet state at 10 doses;
3. IC50 values of test compounds were finally obtained.

Chain of BACE1 (P56817 46-501): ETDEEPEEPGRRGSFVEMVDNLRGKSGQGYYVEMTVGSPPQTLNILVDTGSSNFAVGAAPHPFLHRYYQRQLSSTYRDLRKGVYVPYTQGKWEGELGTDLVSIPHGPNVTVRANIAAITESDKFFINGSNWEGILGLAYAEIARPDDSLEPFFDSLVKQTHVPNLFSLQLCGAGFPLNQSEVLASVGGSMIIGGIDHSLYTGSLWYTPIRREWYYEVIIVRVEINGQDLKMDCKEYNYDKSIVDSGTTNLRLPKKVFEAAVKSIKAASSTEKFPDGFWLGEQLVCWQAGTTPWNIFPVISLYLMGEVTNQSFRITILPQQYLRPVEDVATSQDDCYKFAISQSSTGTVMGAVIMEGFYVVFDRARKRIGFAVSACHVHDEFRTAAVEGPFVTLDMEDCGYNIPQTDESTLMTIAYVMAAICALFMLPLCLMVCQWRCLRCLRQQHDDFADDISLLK

SMILES | IC50 [nM]
C[C@H]1C[C@@]2(F)CSC(N)=N[C@@]2(c2cc(N)ccc2F)CO1 [Example 7, (4aS,6S,8aS)-8a-(5-amino-2-fluorophenyl)-4a-fluoro-6-methyl-4,4a,5,6,8,8a-hexahydropyrano[3,4-d][1,3]thiazin-2-amine] | 5870
C[C@H]1C[C@@]2(F)CSC(N)=N[C@@]2(c2cc(NC(=O)c3ccc(Cl)cn3)ccc2F)CO1 [Example 11, N-(3-((4aS,6S,8aS)-2-amino-4a-fluoro-6-methyl-4,4a,5,6,8,8a-hexahydropyrano[3,4-d][1,3]thiazin-8a-yl)-4-fluorophenyl)-5-chloropicolinamide] | 172
COc1cnc(C(=O)Nc2ccc(F)c([C@]34CO[C@@H](C)C[C@@]3(F)CSC(N)=N4)c2)cn1 [Example 12] | 150
COc1cnc(C(=O)Nc2cccc([C@]34CO[C@@H](C)C[C@@]3(F)CSC(N)=N4)c2)cn1 [Example 14, N-(3-((4aS,6S,8aS)-2-amino-4a-fluoro-6-methyl-4,4a,5,6,8,8a-hexahydropyrano[3,4-d][1,3]thiazin-8a-yl)phenyl)-5-methoxypyrazin-2-carboxamide] | 130
Cc1cnc(C(=O)Nc2cccc([C@]34CO[C@@H](C)C[C@@]3(F)CSC(N)=N4)c2)cn1 [Example 15, N-(3-((4aS,6S,8aS)-2-amino-4a-fluoro-6-methyl-4,4a,5,6,8,8a-hexahydropyrano[3,4-d][1,3]thiazin-8a-yl)phenyl)-5-methylpyrazin-2-carboxamide] | 225

Source: patent US10889595B2, “[1,3]thiazin-2-amine compound, application, and pharmaceutical composition” (TETRANOV PHARMACEUTICAL CO., LTD., priority 2016, dated 2021)
